# Reference: patent US5312831A, “Urethanes and ureas that induce cytokine production” (American Cyanamid Company, priority 1993, dated 1994)
# How the values were obtained:
# [1] = system: CSF; details: literature; cited from earlier work
# [2] = system: bone marrow; details: myelosuppression caused by chemotherapy or radiation; literature; cited from earlier work
# [3] = system: bone marrow progenitor cells; assay: Delta assay: expansion of bone marrow progenitor cells in vitro, with c-kit ligand (KL); assay type: cell-based, mouse; details: KL alone, 7 day in vitro incubation; medium alone 0
# Method: Delta Assay--Mice are treated with a single dose of 5-FU (150 mg/kg ip). Twenty-four hours later, bone marrow cells are removed and split into 2 aliquots. […] After 14 days, the number of colonies is determined (CFU-1). A second aliquot of cells is placed in liquid culture with single growth factors or drugs or combinations of each to assess the ability of these agents to expand the colony forming cell pool. After 7 days in liquid culture, these cells are harvested and plated in soft agar with IL-1 and GM-CSF as with the first aliquot. After 14 days the number of colonies in the second aliquot is determined (CFU-2). The ratio or delta is calculated as CFU-2/CFU-1 and this ratio is used to ascertain the ability of the growth factors and/or drugs used in the liquid phase to induce growth of the colony forming cells (CFU) or differentiation of pre-CFU to CFU.
# Bone marrow cells from 5-FU treated mice are used to enrich for early progenitor cells. The cells are split into 2 aliquots as described in the methods section for the "delta assay." The fold increase is determined by measuring the effect of a 7 day in vitro incubation of the cells with tissue culture medium plus test compound and/or growth factor KL on colony forming dells (CFU). The number of CFUs are then compared with colony formation of the fresh bone marrow cells that were not incubated in vitro to determine the fold increase. Test compound is used in vitro at 0.5 μg/ml.
# [4] = system: neutrophils; assay: Neutrophil recovery in 5-FU treated mice; assay type: in vivo, mouse; details: day 8 post 5FU, 0 dose 144 ± 36
# [5] = system: neutrophils; assay: Neutrophil recovery in 5-FU treated mice; assay type: in vivo, mouse; details: mouse, in vivo
# Method: (§1) Circulating Neutrophil Assay--Mice are treated with 5-FU (150 mg/kg) and beginning 24 hrs. later, treated daily with the test compound. Mice are bled daily by retroorbital puncture in heparinized capillary tubes. Circulating WBC counts are determined by Coulter counter. Blood smears are stained with Wright-Geimsa solution and the percentage circulating neutrophils determined by differential counting under a microscope.
# (§2) 5-Fluorouracil (5-FU) Induced Neutropenia In Mice--Mice are treated ip with 150 mg/kg of the chemotherapy agent 5-FU which induces a severe loss of neutrophils in the peripheral blood 5-6 days later. Twenty-four hrs. after the dose, treatment with the test compounds is initiated. The effect of the test compounds on recovery of neutrophil progenitor cells in the bone marrow is determined by the CFU-GM assay. The recovery of circulating neutrophils is followed by differential staining of the peripheral blood.
# *Data from 10 mice/group on day 7 post treatment with 150 mg/kg of 5FU.
# Beginning 24 hrs. after 5FU dose, mice were treated daily with test
# compound at concentrations indicated. Neutrophil count for normal mice (n
# **Mice treated with 5FU and vehicle only.
# [6] = system: CSF; assay: Serum colony stimulating factor (CSF) assay in mice; assay type: in vivo, mouse; details: serum 4 hours after injection
# Method: Colony forming assays Granulocyte-Macrophage (CFU-GM)--Mice are treated with 150 mg/kg of 5-Fu and treatment with test compound begins 24 hrs. later. On consecutive days, mice are killed by cervical dislocation and the femurs removed under sterile conditions. Femurs are flushed with 1 ml of ice cold medium (Iscove's supplemented with 20% FCS, 1% penicillin-streptomycin, 1% glutamine and 5×10^-5 M 2-mercaptoethanol). Bone marrow cells (5×10^5) are then plated in 12×75 mm tissue culture plates in 3 ml of warm ararose (3%) in Iscove's medium with 100 Units/ml of recombinant mouse GM-CSF purchased from Genzyme (Boston, Mass.). Plates are incubated for 7 days at 37° C. in 5% CO2. After 7 days, colonies of 50 cells or greater are enumerated under a dissecting microscope.
# Bone marrow cells are prepared as described above for the CFU-GM assay. The cells are then incubated in soft agar with an 0.3% final concentration of serum taken from mice 4 hours after injection with test compounds. After 7 days of incubation at 37° C., the number of colony forming (CFU) cells per 10^5 plated bone marrow cells is determined by counting colonies of more than 50 cells under a dissecting microscope. The data are reported as CFU/10^5 bone marrow cells.
# [7] = system: IL-6; assay: Serum IL-6 production in mice after single s.c. injection (7TD1 bioassay); assay type: in vivo, mouse; details: serum 4 h post injection
# Method: Description of Biological Assays Interleukin 6(IL-6) assay for structure function analysis--Test compounds are dissolved in water and administered subcutaneously in 0.2 ml to deliver a dose of 0.1-10 mg/kg. The less soluble compounds are first dissolved in 100% ethanol and then brought to the appropriate concentration in water. Four hours post injection, the mice are bled and the serum is retrieved. The IL-6 dependent cell line 7TDl is used to assay serial dilutions of sera for IL-6 content. 7TDl cells (1×10^4) are placed in microtiter wells and incubated at 37° C. for 72 hours with standard recombinant mouse IL-6 or with dilutions of serum to be tested. Over the last 6 hours, the cells are pulsed with ^3 H-Tdr (μci). Cells are then harvested and the degree of proliferation determined by the uptake of ^3 H-Tdr as measured by liquid scintillation spectrometry. The concentration of IL-6 in serum is calculated from standard curves utilizing recombinant IL-6 from R&D Systems Inc. and are reported in units of IL-6 activity as defined by the manufacturer.
# [8] = system: neutrophils; assay: Neutrophil recovery in cytoxan treated primates; assay type: in vivo, cynomolgous monkeys; details: for Absolute Neutrophil Count/cu. mm. of Blood: Cytoxan + Ex. 32 (50 μg/kg daily s.c.)
# Method: Groups of 4 cynomolgous monkeys are treated on day 1 and day 0 with
# cytoxan at 60 mg/kg. Beginning 24 hours after the second cytoxan dose, on
# group is treated daily s.c. with 50 μg/kg of test compound and the
# other with vehicle (water) only.
# *p < 0.05 versus cytoxan only control by Student's t test.
# [9] = system: neutrophils; assay: Oral dosing: neutrophil recovery in 5-FU treated mice; assay type: in vivo, mouse; details: for Neutrophils/cu. mm.: day 7 post 5FU, 0 dose 67 ± 22
# Method: as §1, §2
# Groups of 5 mice are treated with 150 mg/kg of 5-FU. One day later, daily oral dosing with test compounds begins and continues for 10 days. […]
compound,measurement,setting,value
muroctasin,formation of CSF (in words),[1],appear to induce the formation of CSF
same,bone marrow restoration after myelosuppression (in words),[2],can aid in bone marrow restoration
pimelautide,formation of CSF (in words),[1],appear to induce the formation of CSF
same,bone marrow restoration after myelosuppression (in words),[2],can aid in bone marrow restoration
KL: hemopoietic growth factor c-kit ligand (KL),Fold Increase in CFU,[3],66 fold
"CCCCCCC(=O)N[C@H](COC(=O)N[C@@H](CCC[C@@H](N)C(=O)O)C(=O)N[C@H](C)C(=O)O)C(=O)O [Example 32, (R)-N-[(R)-6-carboxy-N^2-[[2-carboxy-2-[(1-oxoheptyl)amino]ethoxy]carbonyl]-L-lysyl]-D-Alanine]",Neutrophils/cu. mm.,[4]; 100 μg/kg daily,982 ± 150 /cu. mm.
same,Neutrophils/cu. mm.,[4]; 1000 μg/kg daily,1892 ± 293 /cu. mm.
same,neutrophil recovery in 5-FU treated mice (in words),[5],induce neutrophil recovery in 5-FU treated mice
same,"CSF production, CFU/100,000 Bone Marrow Cells",[6]; 0.1 mg/kg,"154 ± 5 CFU/100,000 Bone Marrow Cells"
same,"CSF production, CFU/100,000 Bone Marrow Cells",[6]; 1.0 mg/kg,"137 ± 15 CFU/100,000 Bone Marrow Cells"
same,IL-6,[7]; 0.1 mg/kg s.c.,1340 ± 134 U/ml
same,IL-6,[7]; 1.0 mg/kg s.c.,1797 ± 284 U/ml
same,Absolute Neutrophil Count/cu. mm. of Blood,"[8]; day 0 after cytoxan, cytoxan only 3640 ± 1058",3554 ± 1194 /cu. mm. of Blood
same,Absolute Neutrophil Count/cu. mm. of Blood,"[8]; day 1 after cytoxan, cytoxan only 4900 ± 971",7849 ± 1592 /cu. mm. of Blood
same,Absolute Neutrophil Count/cu. mm. of Blood,"[8]; day 2 after cytoxan, cytoxan only 2689 ± 156",4679 ± 867 /cu. mm. of Blood
same,Absolute Neutrophil Count/cu. mm. of Blood,"[8]; day 3 after cytoxan, cytoxan only 1935 ± 126",1080 ± 264 /cu. mm. of Blood
same,Absolute Neutrophil Count/cu. mm. of Blood,"[8]; day 4 after cytoxan, cytoxan only 1442 ± 344",370 ± 171 /cu. mm. of Blood
same,Absolute Neutrophil Count/cu. mm. of Blood,"[8]; day 5 after cytoxan, cytoxan only 856 ± 295",455 ± 208 /cu. mm. of Blood
same,Absolute Neutrophil Count/cu. mm. of Blood,"[8]; day 6 after cytoxan, cytoxan only 1009 ± 292",518 ± 218 /cu. mm. of Blood
same,Absolute Neutrophil Count/cu. mm. of Blood,"[8]; day 7 after cytoxan, cytoxan only 852 ± 301",1304 ± 1046 /cu. mm. of Blood
same,Absolute Neutrophil Count/cu. mm. of Blood,"[8]; day 8 after cytoxan, cytoxan only 542 ± 233",1596 ± 1000 /cu. mm. of Blood
same,Absolute Neutrophil Count/cu. mm. of Blood,"[8]; day 9 after cytoxan, *p < 0.05 versus cytoxan only 441 ± 194",2041 ± 423 /cu. mm. of Blood
same,Absolute Neutrophil Count/cu. mm. of Blood,"[8]; day 10 after cytoxan, cytoxan only 1244 ± 509",3506 ± 1130 /cu. mm. of Blood
same,Absolute Neutrophil Count/cu. mm. of Blood,"[8]; day 11 after cytoxan, cytoxan only 2053 ± 1002",4576 ± 673 /cu. mm. of Blood
same,Absolute Neutrophil Count/cu. mm. of Blood,"[8]; day 12 after cytoxan, cytoxan only 1885 ± 678",3761 ± 1394 /cu. mm. of Blood
same,Absolute Neutrophil Count/cu. mm. of Blood,"[8]; day 13 after cytoxan, cytoxan only 3502 ± 2297",3751 ± 1278 /cu. mm. of Blood
same,Absolute Neutrophil Count/cu. mm. of Blood,"[8]; day 14 after cytoxan, cytoxan only 3816 ± 1674",3106 ± 520 /cu. mm. of Blood
same,recovery of neutrophils in cytoxan treated primates (in words),"[8]; monkey, in vivo",accelerates the recovery of neutrophils
same,recovery to control levels,[8]; versus a day 10 recovery for the cytoxan only group,≤ 7 days
same,Neutrophils/cu. mm.,[9]; 1 mg/kg daily oral,547 ± 232 /cu. mm
same,Neutrophils/cu. mm.,[9]; 10 mg/kg daily oral,1844 ± 814 /cu. mm
same,neutrophil recovery in 5-FU treated mice when given orally (in words),[9]; oral,active in accelerating neutrophil recovery
